The text below walks through data of patent US20110251253A1, “SOLID FORMS OF (R)-1-(2,2-DIFLUOROBENZO[D][1,3]DIOXOL-5-YL)-N-(1-(2,3-DIHYDROXYPROPYL)-6-FLUORO-2-(1-HYDROXY-2-METHYLPROPAN-2-YL)-1H-INDOL-5-YL) CYCLOPROPANECARBOXAMIDE” (VERTEX PHARMACEUTICALS INCORPORATED, priority 2010, published 2011).

Each structure is given as a SMILES string.

A short description of this data set: Solubility of Compound 1 in solvents. It counts as physicochemical.

`CC(C)(CO)c1cc2cc(NC(=O)C3(c4ccc5c(c4)OC(F)(F)O5)CC3)c(F)cc2n1C[C@@H](O)CO` [Compound 1, (R)-1-(2,2-difluorobenzo[d][1,3]dioxol-5-yl)-N-(1-(2,3-dihydroxypropyl)-6-fluoro-2-(1-hydroxy-2-methylpropan-2-yl)-1H-indol-5-yl)cyclopropanecarboxamide]: the solubility runs as follows: (acetonitrile, methanol, ethanol, isopropyl alcohol, acetone, organic solvent or mixture) greater than 20 mg/mL; (organic solvent or mixture, first solvent, e.g. ethyl acetate, ethanol, isopropyl alcohol, or acetone) greater than 20 mg/mL; (second solvent, for example heptane or water) less than 1 mg/mL.
